A word on the IC50: it is the concentration at which inhibition is half-maximal.

Holding throughout (format): functional
One test concerns the target T1, Proline--tRNA ligase (Plasmodium falciparum (isolate 3D7), UniProt Q8I5R7).
T1 sequence (Q8I5R7 whole entry): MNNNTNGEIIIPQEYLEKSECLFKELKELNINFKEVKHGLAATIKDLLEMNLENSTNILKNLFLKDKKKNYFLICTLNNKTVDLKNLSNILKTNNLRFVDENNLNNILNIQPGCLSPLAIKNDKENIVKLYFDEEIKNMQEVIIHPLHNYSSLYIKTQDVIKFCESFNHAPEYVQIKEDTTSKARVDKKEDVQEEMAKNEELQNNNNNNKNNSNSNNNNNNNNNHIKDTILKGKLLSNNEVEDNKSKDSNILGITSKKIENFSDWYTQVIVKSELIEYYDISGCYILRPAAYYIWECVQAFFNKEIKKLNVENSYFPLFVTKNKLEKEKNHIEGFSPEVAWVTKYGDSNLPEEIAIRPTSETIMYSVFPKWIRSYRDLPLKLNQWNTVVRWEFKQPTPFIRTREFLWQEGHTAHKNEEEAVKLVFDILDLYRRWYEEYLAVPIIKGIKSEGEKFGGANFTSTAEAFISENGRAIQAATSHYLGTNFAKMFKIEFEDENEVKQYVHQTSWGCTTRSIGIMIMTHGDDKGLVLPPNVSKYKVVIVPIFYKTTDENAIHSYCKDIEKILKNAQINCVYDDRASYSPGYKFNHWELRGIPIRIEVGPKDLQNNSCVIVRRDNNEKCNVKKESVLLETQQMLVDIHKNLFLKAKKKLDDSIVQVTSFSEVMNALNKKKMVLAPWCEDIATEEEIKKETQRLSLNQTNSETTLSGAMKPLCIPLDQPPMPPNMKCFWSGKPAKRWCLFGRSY
The test is described as follows: MMV: ProRS recombinant Plasmodium falciparum Prolyl-tRNA-synthetase, assay with yeast tRNA, ATP, and proline and 3 uM MMV malaria box compound, assay read out with kinase glo as % inhibition.

Test [1] concerns the target T2, Cdk-related protein kinase 6 (Plasmodium falciparum, UniProt O77239).
T2 sequence (O77239 whole entry): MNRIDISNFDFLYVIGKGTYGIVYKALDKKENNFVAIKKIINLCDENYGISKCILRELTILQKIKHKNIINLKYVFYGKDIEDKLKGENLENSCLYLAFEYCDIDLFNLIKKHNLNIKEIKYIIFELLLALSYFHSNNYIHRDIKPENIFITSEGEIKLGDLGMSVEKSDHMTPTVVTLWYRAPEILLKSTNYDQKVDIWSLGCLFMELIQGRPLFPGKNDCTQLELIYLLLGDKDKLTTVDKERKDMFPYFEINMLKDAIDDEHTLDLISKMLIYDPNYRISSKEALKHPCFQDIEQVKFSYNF
Put plainly: Final concentrations were 1.5 uM ATP, 5 mM MnCl2, and 15 ug/ml PK6 in a buffer of 100 mM Tris-HCl (pH 7.5). 50 ug/mL MBP was provided as the substrate; 10 uM staurosporine was used as a control inhibitor. Incubation time was 3 hours and 40 minutes.The catalytic activity of each kinase was considered proportional to ATP consumed, as determined from measurements of residual [ATP] with the luciferase-based reagent Kinase-Glo (Promega) following incubation. Luminescence (proportional to residual [ATP]) was measured on the plate readers FLx800 (BioTek Instruments, Winooski, VT, USA) and MicroBeta2. A general note: Kinase-Glo reads ATP consumption through a luciferase reaction.

For test [2], the target named is T3, Calcium-dependent protein kinase 4 (Plasmodium falciparum (isolate 3D7), UniProt Q8IBS5).
T3 sequence (Q8IBS5 whole entry): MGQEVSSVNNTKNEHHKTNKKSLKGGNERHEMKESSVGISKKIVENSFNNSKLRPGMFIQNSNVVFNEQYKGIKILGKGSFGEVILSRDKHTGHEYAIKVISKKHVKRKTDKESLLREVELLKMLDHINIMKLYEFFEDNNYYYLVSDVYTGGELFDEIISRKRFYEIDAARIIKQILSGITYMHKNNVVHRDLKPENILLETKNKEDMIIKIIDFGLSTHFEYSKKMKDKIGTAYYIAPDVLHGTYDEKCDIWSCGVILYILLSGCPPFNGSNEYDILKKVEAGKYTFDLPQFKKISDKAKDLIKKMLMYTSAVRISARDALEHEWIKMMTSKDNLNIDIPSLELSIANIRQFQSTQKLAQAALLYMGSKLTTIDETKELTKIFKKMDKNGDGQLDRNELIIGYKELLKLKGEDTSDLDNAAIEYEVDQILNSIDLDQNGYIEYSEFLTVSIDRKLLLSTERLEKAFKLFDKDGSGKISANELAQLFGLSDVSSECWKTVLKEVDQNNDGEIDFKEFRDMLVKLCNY
Put plainly: MMV: CDPK4 Protein kinase inhibition assay using recombinant PfCDPK4, syntide2 peptide substrate, ATP and KinaseGlo to measure % inhibition at 1 uM MMV box compound.

Test [3] addresses T4, Mitogen-activated protein kinase (Plasmodium falciparum, UniProt Q25917).
T4 sequence (Q25917 whole entry): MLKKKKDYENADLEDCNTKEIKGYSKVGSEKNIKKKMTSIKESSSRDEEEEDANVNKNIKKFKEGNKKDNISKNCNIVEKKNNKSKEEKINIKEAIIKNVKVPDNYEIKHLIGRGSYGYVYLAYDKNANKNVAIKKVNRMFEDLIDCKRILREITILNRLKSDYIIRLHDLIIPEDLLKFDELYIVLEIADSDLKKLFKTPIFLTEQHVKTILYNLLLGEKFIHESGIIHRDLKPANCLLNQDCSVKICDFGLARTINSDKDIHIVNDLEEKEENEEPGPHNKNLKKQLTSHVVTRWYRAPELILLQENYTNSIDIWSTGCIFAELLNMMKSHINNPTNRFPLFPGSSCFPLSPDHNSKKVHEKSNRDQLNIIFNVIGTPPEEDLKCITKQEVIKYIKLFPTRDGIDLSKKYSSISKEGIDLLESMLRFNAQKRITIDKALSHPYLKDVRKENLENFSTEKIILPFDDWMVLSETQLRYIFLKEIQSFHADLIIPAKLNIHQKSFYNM
Put plainly: Final concentrations were 1 uM ATP, 0.5 mM DTT, 1 mM MgCl2, 0.5 mg/mL BSA, and 10 ug/ml MAP2 in a buffer of 50 mM HEPES (pH 7.0). 0.5 mg/mL histone III-S served as the substrate (13); 100 uM AMP-PNP, an ATP analog, was used as a control inhibitor. Incubation time was 4 hours.

The target in test [4] is Calcium-dependent protein kinase 1 (Plasmodium falciparum, UniProt P62344). The test is described as follows: MMV: CDPK1 Protein kinase inhibition assay using recombinant PfCDPK1, syntide 2 peptide substrate, ATP and KinaseGlo to measure % inhibition at 1 uM MMV box compound.
Calcium-dependent protein kinase 1, sequence (P62344 whole entry): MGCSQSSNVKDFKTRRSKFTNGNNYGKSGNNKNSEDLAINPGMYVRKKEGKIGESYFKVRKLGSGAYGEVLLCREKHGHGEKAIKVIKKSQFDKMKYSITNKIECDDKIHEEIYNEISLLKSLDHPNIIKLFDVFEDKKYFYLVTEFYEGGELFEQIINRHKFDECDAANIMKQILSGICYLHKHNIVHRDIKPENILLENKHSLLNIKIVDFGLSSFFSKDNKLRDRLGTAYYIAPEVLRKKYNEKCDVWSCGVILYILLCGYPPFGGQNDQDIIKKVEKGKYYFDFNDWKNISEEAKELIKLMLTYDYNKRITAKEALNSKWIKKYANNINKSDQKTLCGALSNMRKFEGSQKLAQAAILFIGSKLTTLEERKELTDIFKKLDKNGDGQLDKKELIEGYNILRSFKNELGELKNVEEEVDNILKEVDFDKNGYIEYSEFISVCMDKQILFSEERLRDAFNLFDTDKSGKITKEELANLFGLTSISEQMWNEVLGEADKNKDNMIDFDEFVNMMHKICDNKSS
Test [5] deals with T5, Putative uncharacterized protein pk7 (Plasmodium falciparum, UniProt O96214).
T5 sequence (O96214 whole entry): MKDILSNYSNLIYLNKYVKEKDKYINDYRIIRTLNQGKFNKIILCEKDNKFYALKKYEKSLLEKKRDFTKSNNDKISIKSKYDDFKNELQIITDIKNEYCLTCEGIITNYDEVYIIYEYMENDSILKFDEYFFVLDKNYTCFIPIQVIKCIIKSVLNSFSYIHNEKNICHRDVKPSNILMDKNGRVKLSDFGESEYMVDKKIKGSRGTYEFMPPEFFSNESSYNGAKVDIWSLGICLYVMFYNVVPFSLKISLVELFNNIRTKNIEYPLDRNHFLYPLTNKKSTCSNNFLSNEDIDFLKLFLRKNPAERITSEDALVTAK
The test is described as follows: Final concentrations were 1 uM ATP, 2 mM DTT, 20 mM MgCl2, 2 mM MnCl2, 0.01% BSA, and 6 ug/ml PK7, in a buffer of 20 mM Tris-HCl (pH 7.5). The enzyme itself was the only substrate present (since autophosphorylation occurs); 100 uM 1NA-PP1 was used as a control inhibitor. Incubation time was 3 hours.

Another test concerns the target Lysine--tRNA ligase (Plasmodium falciparum (isolate 3D7), UniProt Q8IDJ8). The test is described as follows: MMV: KRS recombinant Plasmodium falciparum Lysyl-tRNA-synthetase, assay with yeast tRNA, ATP, and lysine and 3 uM MMV malaria box compound, assay read out with kinase glo as % inhibition.

Lysine--tRNA ligase, sequence (Q8IDJ8 whole entry): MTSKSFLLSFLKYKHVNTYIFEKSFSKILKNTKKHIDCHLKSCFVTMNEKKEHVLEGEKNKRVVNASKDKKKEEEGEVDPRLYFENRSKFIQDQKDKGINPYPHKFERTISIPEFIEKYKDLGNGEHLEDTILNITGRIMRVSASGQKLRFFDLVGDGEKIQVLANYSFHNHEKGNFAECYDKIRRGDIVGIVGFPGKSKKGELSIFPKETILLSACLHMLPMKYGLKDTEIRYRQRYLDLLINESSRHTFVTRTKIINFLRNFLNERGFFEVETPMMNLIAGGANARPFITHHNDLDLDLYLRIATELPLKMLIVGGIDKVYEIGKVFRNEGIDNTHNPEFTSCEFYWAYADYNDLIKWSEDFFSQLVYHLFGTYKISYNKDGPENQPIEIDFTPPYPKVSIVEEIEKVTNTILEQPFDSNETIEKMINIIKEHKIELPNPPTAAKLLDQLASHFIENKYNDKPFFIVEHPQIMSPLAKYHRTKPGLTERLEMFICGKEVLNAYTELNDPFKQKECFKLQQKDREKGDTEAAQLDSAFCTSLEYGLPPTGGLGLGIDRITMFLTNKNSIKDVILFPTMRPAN

For the molecule `O=C1c2ccccc2-c2nnc(-c3ccc(Br)cc3)cc21`, the concentration for half-maximal inhibition (IC50) on Proline--tRNA ligase is > 2.5 µM; in test [1], > 1 µM; in test [2] it was > 1 µM; in test [3] it was > 1 µM; in test [4] it was > 1 µM; in test [5] it was > 1 µM. The IC50 at Lysine--tRNA ligase was > 2.5 µM.
In the case of `CCOC(=O)C1=C(C)N=c2sc(=Cc3cc(Cl)ccc3O)c(=O)n2C1c1ccc(OC)cc1` (stereo not drawn), the IC50 was > 2.5 µM at Proline--tRNA ligase; > 1 µM in test [1]; > 1 µM in test [2]; > 1 µM in test [3]; > 1 µM in test [4]; > 1 µM in test [5]. Besides, the concentration for half-maximal inhibition (IC50) on Lysine--tRNA ligase is > 2.5 µM.
As to `Cc1nc2ccccc2c(O)c1CC=C(Cl)Cl`, the concentration for half-maximal inhibition (IC50) on Proline--tRNA ligase is > 2.5 µM; in test [1], > 1 µM; in test [2], > 1 µM; in test [3] it was > 1 µM; in test [4], > 1 µM; in test [5], > 1 µM. Besides, the 50% inhibitory concentration (IC50) at Lysine--tRNA ligase is > 2.5 µM.
In the case of `CC(=O)c1ccc(NC(=O)CSc2nc(-c3ccccc3Cl)ns2)cc1`, the concentration for half-maximal inhibition (IC50) on Proline--tRNA ligase is > 2.5 µM; in test [1] it was > 1 µM; in test [2] it was > 1 µM; in test [3], > 1 µM; in test [4], > 1 µM; in test [5], > 1 µM. The IC50 at Lysine--tRNA ligase was > 2.5 µM.
As to `O=C(NCCCN1CCC(N2CCCCC2)CC1)C1=Cc2cc(Br)ccc2OC1`, the half-maximal inhibitory concentration (IC50) was > 2.5 µM on Proline--tRNA ligase; > 1 µM in test [1]; > 1 µM in test [2]; > 1 µM in test [3]; > 1 µM in test [4]; > 1 µM in test [5]. In addition, the IC50 at Lysine--tRNA ligase is > 2.5 µM.
With `Cc1ccc(OCCCCCCNCCO)c(C)c1`, the IC50 at Proline--tRNA ligase was > 2.5 µM; in test [1], > 1 µM; in test [2], > 1 µM; in test [3], > 1 µM; in test [4], > 1 µM; in test [5] it was > 1 µM. Moreover, the IC50 on Lysine--tRNA ligase is > 2.5 µM.
`Cc1ccccc1OCCSc1nc2ccc(NC(=O)c3ccccc3)cc2s1`: the IC50 at Proline--tRNA ligase is > 2.5 µM; in test [1], > 1 µM; in test [2] it was > 1 µM; in test [3], > 1 µM; in test [4], > 1 µM; in test [5], > 1 µM. For the same molecule, the half-maximal inhibitory concentration (IC50) at Lysine--tRNA ligase is > 2.5 µM.
Turning to `CCOC(=O)C1(Cc2ccccc2)CCN(Cc2cccc(OC)c2O)CC1`, the IC50 is > 2.5 µM on Proline--tRNA ligase; > 1 µM in test [1]; > 1 µM in test [2]; > 1 µM in test [3]; > 1 µM in test [4]; > 1 µM in test [5]. Also, the IC50 at Lysine--tRNA ligase is > 2.5 µM.
Turning to `CC(C)(C)c1ccc2c(c1)CN(Cc1ccc(Cl)cc1)CO2`, the concentration for half-maximal inhibition (IC50) on Proline--tRNA ligase is > 2.5 µM; in test [1] it was > 1 µM; in test [2] it was > 1 µM; in test [3], > 1 µM; in test [4], > 1 µM; in test [5], > 1 µM. Also, the half-inhibitory concentration (IC50) at Lysine--tRNA ligase was > 2.5 µM.
On to `COc1ccc(OC)c(C2C3=C(CC(C)(C)CC3=O)N(c3ccc(Cl)c(Cl)c3)C3=C2C(=O)CC(C)(C)C3)c1`, for which the IC50 at Proline--tRNA ligase was > 2.5 µM; in test [1], > 1 µM; in test [2], > 1 µM; in test [3] it was > 1 µM; in test [4], > 1 µM; in test [5] it was > 1 µM. In addition, the half-inhibitory concentration (IC50) on Lysine--tRNA ligase is > 2.5 µM.
For `OC1CCCCC1C1(NC(=S)Nc2ccccc2)CCCCC1` (stereo not drawn), the 50% inhibitory concentration (IC50) on Proline--tRNA ligase was > 2.5 µM; in test [1] it was > 1 µM; in test [2], > 1 µM; in test [3] it was > 1 µM; in test [4] it was > 1 µM; in test [5], > 1 µM. On Lysine--tRNA ligase, the IC50 was > 2.5 µM.
On to `COc1ccc(C)c2sc(N(Cc3cccnc3)C(=O)c3ccc(C#N)cc3)nc12`, for which the IC50 was > 2.5 µM at Proline--tRNA ligase; > 1 µM in test [1]; > 1 µM in test [2]; > 1 µM in test [3]; > 1 µM in test [4]; > 1 µM in test [5]. The half-inhibitory concentration (IC50) on Lysine--tRNA ligase was > 2.5 µM.
`CCCCCn1c(=N)n(CC(O)COc2cccc(C)c2)c2ccccc21` (stereo not drawn): the half-inhibitory concentration (IC50) on Proline--tRNA ligase was > 2.5 µM; in test [1] it was > 1 µM; in test [2], > 1 µM; in test [3], > 1 µM; in test [4], > 1 µM; in test [5], > 1 µM. Moreover, on Lysine--tRNA ligase, the half-maximal inhibitory concentration (IC50) was > 2.5 µM.
`Cc1ccc(S(=O)(=O)c2c(COC(=O)c3cccc(C)c3)c(-c3ccccc3)nn2C)cc1`: the IC50 on Proline--tRNA ligase is > 2.5 µM; in test [1], > 1 µM; in test [2] it was > 1 µM; in test [3] it was > 1 µM; in test [4], > 1 µM; in test [5], > 1 µM. In addition, the IC50 at Lysine--tRNA ligase was > 2.5 µM.

The values are drawn from ChEMBL document CHEMBL3301562, “MMV Box screening against Plasmodium falciparum protein kinases and aminoacyl tRNA synthetases”.
